In patent US3932664A, “Substituted phenoxyalkyl quaternary ammonium compounds as antiarrhythemic agents” (priority 1974, dated 1976):

How the values were obtained:
[1] = test system: multifocal ventricular arrhythmias induced by n-hexane and epinephrine in dogs; assay: protection against multifocal ventricular arrhythmias induced by n-hexane and epinephrine in dogs; assay type: in vivo; settings: dog, intravenous
Description: [2-(4-Amino-2,6-dibromophenoxy)ethyl]dimethyl-(2-methylallyl)ammonium chloride is employed to alleviate multifocal ventricular arrhythmias induced by administration of n-hexane and epinephrine. In these operations, dogs are anesthetized by intravenous administration of 30 milligrams of pentobarbital sodium per kilogram. Transient ventricular arrhythmias are induced by a modification of the method of Garb and Chenowith, J. Pharmacol. Exp. Ther. 94; 12 (1948) in which the heart is sensitized by intratracheal injection of 0.04 milliliter of n-hexane per kilogram, followed in 15 seconds by rapid intravenous administration of 1-epinephrine bitrate at a dosage rate of 10 micrograms per kilogram. Such procedure produces a transient arrhythmia lasting about 10 seconds. Duration of protection by a test compound is evaluated by repeating the n-hexane and epinephrine challenge periodically and monitoring electrocardiogram and arterial blood pressure. […] When the same compound is administered at a dosage rate of 2 milligrams per kilogram, the duration of protection is found to be greater than 2 hours.
In similar operations, dosages of 5 to 10 milligrams per kilogram are found to be required to obtain similar antiarrhythmic effects when the known antiarrhythmic agent, quinidine sulfate, is employed as a test compound.

[2] = test system: electrically induced ventricular fibrillation in dogs; assay: threshold for electrically induced ventricular fibrillation in electrically paced dogs; assay type: in vivo, dog; settings: intravenous
[3] = test system: arrhythmia after experimental coronary artery occlusion in dogs; assay: abnormal complexes after experimental occlusion of the anterior descending coronary artery in dogs; assay type: in vivo; settings: dog
Protocol: An experimental occlusion of the anterior descending coronary artery is produced in dogs according to the method of Harris, Circulation 1, 1318 (1950). Following surgery the animals are given a penicillin-streptomycin preparation and allowed to recover for 18-24 hours. The animals are given 3 milligrams per kilogram of morphine sulfate as an analgetic and sedative to allow handling. Electrocardiograms are recorded both before and after administration of [2-([…])ethyl]dimethyl-(2-methylallyl)ammonium chloride to the test animals. The incidence of abnormal complexes (premature ventricular contractions and atrioventricular nodal beats) per minute is recorded as a percentage of total beats per minute. In one such operation the test compound is administered by intravenous infusion at rates of 1, 2, 2 and 2 milligrams per kilogram at intervals of 10 to 15 minutes. […] Following the last infusion of test compound the heartbeat rate is observed to have decreased from a rate of over 160 beats per minute prior to the first infusion to about 90-100 beats per minute. The incidence of ectopic beats at this time has decreased from a pre-treatment level of 100 percent abnormal beats per minute to below 60 percent, reaching zero (100 percent normal beats) within about 10 minutes after the last infusion. The lower heartbeat rate and low incidence of abnormal beats (generally 0 to 20 percent of the total beats per minute are abnormal) is found to persist for 2 hours following the last infusion of test compound, at which time the experiment is terminated.
In similar operations, the same test compound is infused at dosages of 1, 2 and 4 milligrams per kilogram at intervals over a forty minute period. Prior to infusion the incidence of abnormal beats is 100 percent. […] The incidence of abnormal beats is found to remain at zero with occasional brief periods of slight arrhythmia (2-5 percent abnormal beats) for 2.5 hours following the last dosage of the test compound, when recording is terminated.
In a similar operation the [2-([…])ethyl]dimethyl(2-methylallyl)ammonium chloride is administered orally in gelatin capsules. The test compound is administered in multiple dosages of 30, 30 and 50 milligrams per kilogram over a period of 150 minutes. […] Antiarrhythmic effects continue to be observed until the recording is terminated 140 minutes after the last dose of test compound.

[4] = blood and heart levels in rabbits after oral and intravenous administration; assay type: in vivo; settings: rabbit
[5] = acute oral toxicity in rats; settings: rat, in vivo, single oral dose
Protocol: (§1) An aqueous solution of [2-(4-amino-2,6-dibromophenoxy)ethyl]dimethyl (2-methylallyl)ammonium chloride is administered orally to several groups of male and female Sprague-Dawley derived rats and male and female Swiss mice (Cox strain). The compound is administered as single oral dosages in varying amounts, and the animals are held to assess toxicity twenty-four hours after administration of the compound.

[6] = acute oral toxicity in mice; settings: mouse, in vivo, single oral dose
Protocol: as §1

[7] = iv infusion, following the first infusion (1 mg/kg)

C=C(C)C[N+](C)(C)CCOc1c(Br)cc(N)cc1Br.[Cl-] [Example 1, [2-(4-amino-2,6-dibromophenoxy)ethyl]-dimethyl(2-methylallyl)ammonium chloride]
duration of protection ([1]; 2 mg/kg): greater than 2 hours | duration of antiarrhythmic effect ([1]; one mg/kg): about 1 hour | protection against the arrhythmias ([1]; one mg/kg): excellent protection | increase in threshold for electrically induced ventricular fibrillation [2]: substantial increases | time after last infusion to substantially complete conversion to sinus rhythm ([3]; infused 1, 2 and 4 mg/kg over forty minutes): eight | conversion to sinus rhythm ([3]; infused 1, 2 and 4 mg/kg over forty minutes, incidence of abnormal beats 100 percent before): substantially complete conversion to sinus rhythm | time for which incidence of abnormal beats remains at zero (with occasional slight arrhythmia) ([3]; infused 1, 2 and 4 mg/kg, following last dosage, recording then terminated): ≥ 2.5 h | incidence of abnormal beats ([3]; infused 1, 2 and 4 mg/kg, for 2.5 hours following the last dosage): zero | anti-arrhythmic effects on resumption of recording ([3]; infused 1, 2 and 4 mg/kg, recording resumed 215 minutes later): significant anti-arrhythmic effects are still exhibited | abnormal beats during occasional brief periods of slight arrhythmia ([3]; infused 1, 2 and 4 mg/kg, within 2.5 hours following the last dosage): 2-5% | time after last infusion to zero ectopic beats (100 percent normal beats) ([3]; iv 1, 2, 2 and 2 mg/kg): ≤ 10 min | persistence of lower heartbeat rate and low incidence of abnormal beats ([3]; iv 1, 2, 2 and 2 mg/kg, following last infusion, experiment terminated at that time): ≥ 2 h | heartbeat rate ([3]; iv 1, 2, 2 and 2 mg/kg, following last infusion, over 160 beats per minute prior to first infusion, in beats/min): 90-100 | incidence of ectopic beats (percent abnormal beats per minute) ([3]; iv 1, 2, 2 and 2 mg/kg, following last infusion, pre-treatment 100 percent): below 60% | incidence of ectopic beats ([3]; iv 1, 2, 2 and 2 mg/kg, within about 10 minutes after the last infusion): zero | change in percentage of abnormal beats per minute [3, 7]: concomitant decrease | heart beat rate change [3, 7]: marked decrease | antiarrhythmic effects of the second and third doses ([3]; oral 30, 30 and 50 mg/kg): further and more consistent antiarrhythmic effects | time after last dose to periods with less than 10 percent abnormal beats ([3]; oral 30, 30 and 50 mg/kg): about 25 minutes | abnormal beats (periods in electrocardiogram) ([3]; oral 30, 30 and 50 mg/kg, beginning about 25 minutes after last dose, interspersed with occasional arrhythmia): less than 10% | time after last dose over which antiarrhythmic effects continue to be observed ([3]; oral 30, 30 and 50 mg/kg, recording then terminated): ≥ 140 min | time after first dosage to periods of reduced frequency of abnormal heart beats ([3]; oral gelatin capsules, 30, 30 and 50 mg/kg over 150 minutes): 10 min | oral absorption [4]: indicate oral absorption | LD50 at 24 h ([5]; female rats): 725 mg/kg | LD50 at 24 h ([5]; male rats): 758 mg/kg | LD50 at 24 h ([6]; female mice): 550 mg/kg | LD50 at 24 h ([6]; male mice): 560 mg/kg
